Test system: intestinal microbiota
Assay: Faecal microbial profile (16S rRNA gene sequencing, MALDI-TOF) in randomised placebo-controlled trial
Format: in vivo, human
Procedure: The study described herein was a pilot, single site, randomised, double blind, placebo-controlled trial. Ethical approval was granted by the Sydney Local Health District Human Research Ethics Committee, RPA Hospital, Sydney, Australia. The study was carried out according to the Declaration of Helsinki, the National Health and Medical Research Council National Statement on Ethical Conduct in Research Involving Humans and the Notes for Guidance on Good Clinical Practice as adopted by the Australian Therapeutic Goods Administration and the International Conference on Harmonisation Good Clinical Practise guidelines. Written informed consent was obtained from participants before enrolment.
The active product administered was a capsule containing 5×10^10 colony forming units (cfu) of a multi-strain probiotic combination of Lactobacillus plantarum, Lactobacillus bulgaricus, Lactobacillus gasseri, Bifidobacterum breve, Bifidobacterium animalis subsp. lactis, Bifidobacterium bifidum, Streptococcus thermophilus and Saccharomyces boulardii. The placebo was a capsule containing 50 mg maltodextrin. The probiotic and placebo capsules were opaque white in colour and looked and smelled identical. […]
Faecal bacterial profiles were determined using the Ion S5 next-generation sequencing platform (Thermo Fisher) and faecal yeasts were identified by matrix-assisted laser desorption ionization time-of-flight mass spectrometry (MALDI-TOF). […] After extraction, DNA was quantified in a Qubit 2.0 Fluorometer (Invitrogen, Thermo Fisher). […] PCR products were quantified and their quality was evaluated by electrophoretic fractionation in 2% agarose gels (E-Gel, EX Agarose Gel, Thermo Fisher). […]

For `CN(C)C(=N)NC(=N)N` [metformin, N,N-dimethylimidodicarbonimidic diamide], the “intestinal microbial community (beta diversity) at species and genera level” value (participants taking vs not taking metformin, p=0.002 (species) and 0.036 (genera)) was “differed from those not taking metformin”, the “effect on intestinal microbiota at the family level” value (participants taking vs not taking metformin, p=0.56) was “no effect” and the “relative abundance of Akkermansia municiphila” value (those taking metformin in the placebo group, in contrast to the probiotic group) was “lower relative abundance”.
